Source: ChEMBL document CHEMBL1201862, “PubChem BioAssay data set” (2004)
Active and inactive are the calls of the source.

Experiments:
[1] = DRD fibroblast viability loss – cell-based, non-viral oncogenic, luminescence, dose response (AID 1934); assay type: functional; conditions: Homo sapiens
BJ [2] = experiment: cells; assay type: functional, cell-based; conditions: Homo sapiens
BJ [3] = experiment: growth inhibition of engineered Ras-driven BJ cells – cell-based, alamar blue fluorescence, cherrypicked samples, dose response (AID 2631); assay type: functional; conditions: Homo sapiens;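 also: confirmatory dose-response assay in RAS-dependent BJ fibroblasts engineered with TERT, LT and ST, with cytotoxicity read by fluorescence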
BJ [4] = experiment: BJ-TERT fibroblast viability loss – cell-based, RAS-independent, luminescence, dose response (AID 1933); assay type: functional; conditions: Homo sapiens
BJ [5] = experiment: BJ-TERT-LT-ST fibroblast viability loss – cell-based, RAS-independent, luminescence, dose response (AID 1935); assay type: functional; conditions: Homo sapiens;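 also: BJ fibroblasts immortalized with TERT plus LT and ST oncogenes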
Beta-galactosidase = Beta-galactosidase (Escherichia coli, UniProt Q8VNN2); experiment: PubChem AID 485352; assay type: functional
[6] = target: Type-1 angiotensin II receptor (Homo sapiens, UniProt P30556); experiment: antagonism of angiotensin II type 1 receptor – cell-based, uHTS hits, selectivity assay for APJ receptor antagonist project, dose response (AID 463214); assay type: functional;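 also: antagonist potency against angiotensin II stimulated AT1 response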
[7] = microbe, parasite or virus in culture; assay type: functional; conditions: Mycobacterium tuberculosis
[8] = target: Delta-type opioid receptor (Homo sapiens, UniProt P41143); experiment: Counterscreen for agonists of heterodimerization of the mu 1 (OPRM1) and delta 1 (OPRD1) opioid receptors: Luminescence-based cell-based high throughput dose response assay to identify agonists of OPRD1 homodimerization. [Related pubchem assays (depositor defined):AID504326, AID504355, AID504692, AID504904, AID504905]; assay type: functional
[9] = target: 5-hydroxytryptamine receptor 5A (Homo sapiens, UniProt P47898); experiment: Counterscreen for agonists of OPRM1-OPRD1 heterodimerization: luminescence-based cell-based high throughput dose response assay to identify agonists of 5-hydroxytryptamine (serotonin) 5A receptor (HTR5A). [Related pubchem assays (depositor defined):AID504326, AID504355, AID504692, AID504904, AID504905]; assay type: functional
Mu-type opioid receptor = Mu-type opioid receptor (Homo sapiens, UniProt P35372); experiment: Counterscreen for agonists of heterodimerization of the mu 1 (OPRM1) and delta 1 (OPRD1) opioid receptors: Luminescence-based cell-based high throughput dose response assay to identify agonists of OPRM1 homodimerization.; assay type: functional;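 also: U2OS cells expressing OPRM1 and beta-arrestin as split beta-galactosidase partners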
[10] = target: T1, Voltage-gated N-type calcium channel alpha-1B subunit/Amyloid beta A4 precursor protein-binding family A member 1 (Homo sapiens, UniProt Q00975+Q02410); experiment: disruptors of Mint-PDZ/N-type channel peptide interaction – biochemical, HTRF, SAR follow-up (AID 2489); assay type: functional
SUMO E1/E2 = SUMO E1/E2 (Homo sapiens, UniProt P63279+Q9UBE0+Q9UBT2); experiment: SAR analysis of SUMOylation using HTRF in an in-Vitro dose response assay. [Related pubchem assays (depositor defined):AID2006, AID2011, AID2018, AID2069, AID2658]; assay type: functional
[11] = target: T1, Voltage-gated N-type calcium channel alpha-1B subunit/Amyloid beta A4 precursor protein-binding family A member 1; experiment: disruptors of Mint-PDZ/N-type channel peptide interaction – biochemical, HTRF, set 2, SAR follow-up (AID 434980); assay type: functional
Phospholipase D1 = Phospholipase D1 (Homo sapiens, UniProt Q13393); experiment: cellular phospholipase D1 inhibition IC50 – cell-based, dose response (AID 602151); assay type: functional;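 also: cellular PLD1 assay in Calu-1 cells stimulated with PMA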
Phospholipase D2 = Phospholipase D2 (Homo sapiens, UniProt O14939); experiment: cellular phospholipase D2 inhibition IC50 – cell-based, dose response (AID 602147); assay type: functional;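 also: cellular assay in HEK293 cells overexpressing GFP-tagged PLD2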
Paired box protein Pax-8 = Paired box protein Pax-8 (Homo sapiens, UniProt Q06710); experiment: PAX8 transcriptional activity inhibition in RMG-I – RMG-I cells, luciferase, cherry-pick, dose response (AID 687027); assay type: functional, cell-based;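 also: luciferase reporter driven by Pax8 target thyroperoxidase promoter measured by SteadyGlo luminescence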
cells = assay type: functional, cell-based
[12] = luciferase reporter signal suppression in cells – H4 neuroglioma cells, luminescence, dose response (AID 1990); assay type: functional, cell-based
[13] = alpha-synuclein stem-loop luciferase translation blockers – H4 neuroglioma cells, luminescence, confirmation (AID 1988); assay type: functional, cell-based
[14] = Luminescence Cell-Based Dose Response HTS to Identify Inhibitors of 5'UTR Stem-Loop Driven Prion Protein mRNA Translation in H4 Neuroglioblastoma Cells. [Related pubchem assays: 1827 (Project Summary), 1813 (Primary HTS)]; assay type: functional
[15] = general cell-killing toxicity readout – plate reader, dry powder samples, cytotoxicity control for PAX8 inhibitor project, dose response (AID 743021); assay type: functional, cell-based
[16] = alpha-synuclein stem-loop translation blockers – luminescence, H4 neuroglioblastoma cells, dose confirmation, confirmation (AID 2454); assay type: functional, cell-based;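 also: H4 neuroglioblastoma cells carrying an alpha-synuclein 5'UTR luciferase reporter; potency for inhibition of the luciferase signal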
[17] = luciferase reporter signal reduction – luminescence, H4-C neuroglioblastoma cells, dose response (AID 2458); assay type: functional, cell-based;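 also: H4 neuroglioblastoma cells stably carrying a luciferase reporter gene fusion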
Orexin receptor type 2 [18] = target: T2, Orexin receptor type 2 (Homo sapiens, UniProt O43614); experiment: Counterscreen assay for antagonists of the orexin 1 receptor (OX1R; HCRTR1): Fluorescence-based cell-based dose response assay for antagonists of the orexin 2 receptor (OX2R; HCRTR2), run by assay provider.; assay type: functional
T2 sequence (O43614 whole entry): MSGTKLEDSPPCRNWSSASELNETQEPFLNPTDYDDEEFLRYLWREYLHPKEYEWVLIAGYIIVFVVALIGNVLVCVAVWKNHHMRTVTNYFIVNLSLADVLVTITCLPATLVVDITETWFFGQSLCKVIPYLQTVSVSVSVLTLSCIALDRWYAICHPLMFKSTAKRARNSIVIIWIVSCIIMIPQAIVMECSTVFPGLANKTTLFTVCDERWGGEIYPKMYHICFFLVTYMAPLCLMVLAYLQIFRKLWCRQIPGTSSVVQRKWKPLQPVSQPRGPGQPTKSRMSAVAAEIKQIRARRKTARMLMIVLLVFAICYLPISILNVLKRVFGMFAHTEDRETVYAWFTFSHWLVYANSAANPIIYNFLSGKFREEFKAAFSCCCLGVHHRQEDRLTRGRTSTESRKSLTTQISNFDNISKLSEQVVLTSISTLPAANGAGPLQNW

[19] = target: T3, Orexin/Hypocretin receptor type 1 (Homo sapiens, UniProt O43613); experiment: Homogeneous Time Resolved Fluorescence (HTRF)-based cell-based high throughput dose response assay for antagonists of the orexin 1 receptor (OX1R; HCRTR1). [Related pubchem assays (depositor defined):AID434989, AID435008, AID463079, AID485270, AID492963, AID492964, AID492965, AID493232, AID504717, AID504718]; assay type: functional
T3 sequence (O43613 whole entry): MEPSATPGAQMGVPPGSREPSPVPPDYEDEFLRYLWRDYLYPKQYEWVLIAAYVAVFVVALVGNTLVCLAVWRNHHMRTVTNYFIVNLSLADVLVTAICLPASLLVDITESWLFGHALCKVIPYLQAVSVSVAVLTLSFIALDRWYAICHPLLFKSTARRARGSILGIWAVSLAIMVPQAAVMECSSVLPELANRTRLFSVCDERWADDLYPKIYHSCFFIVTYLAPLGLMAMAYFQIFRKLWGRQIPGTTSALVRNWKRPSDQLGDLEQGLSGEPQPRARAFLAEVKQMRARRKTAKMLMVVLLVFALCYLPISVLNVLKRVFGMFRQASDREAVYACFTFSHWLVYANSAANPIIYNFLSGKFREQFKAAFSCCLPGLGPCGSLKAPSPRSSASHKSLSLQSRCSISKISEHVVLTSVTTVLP

[20] = target: T3, Orexin/Hypocretin receptor type 1; experiment: Fluorescence-based cell-based high throughput dose response assay for antagonists of the orexin 1 receptor (OX1R; HCRTR1). [Related pubchem assays (depositor defined):AID434989, AID435008, AID463079, AID485270, AID492963, AID492964, AID492965, AID493232, AID504717, AID504718]; assay type: functional
CHO-K1 = experiment: Counterscreen for antagonists of the orexin 1 receptor (OX1R; HCRTR1): Homogeneous time resolved fluorescence (HTRF)-based cell-based dose response assay to identify antagonists of the parental CHO-K1 cell line. [Related pubchem assays (depositor defined):AID434989, AID435008, AID463079, AID485270, AID492963, AID492964, AID492965, AID493232, AID504699, AID504701]; assay type: functional; conditions: Cricetulus griseus;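 also: potency for inhibition of ATP-stimulated IP1 production as antagonists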
Orexin receptor type 2 [21] = target: T2, Orexin receptor type 2; experiment: Counterscreen assay for antagonists of the orexin 1 receptor (OX1R; HCRTR1): Homogeneous Time Resolved Fluorescence (HTRF)-based cell-based dose response assay for antagonists of the orexin 2 receptor (OX2R; HCRTR2), run by assay provider.; assay type: functional
[22] = Counterscreen for antagonists of the orexin 1 receptor (OX1R; HCRTR1): Fluorescence-based cell-based high throughput dose response assay to identify antagonists of the parental CHO cell line. [Related pubchem assays (depositor defined):AID434989, AID435008, AID463079, AID485270, AID492963, AID492964, AID492965, AID493232, AID504699, AID504701]; assay type: functional
[23] = target: T4, Endoribonuclease toxin MazF (Escherichia coli K-12, UniProt P0AE70); experiment: activation of MazEF endoribonuclease cleavage – biochemical, fluorescence, single-stranded RNA substrate, uHTS hits, dose response (AID 588481); assay type: functional
T4 sequence (P0AE70 whole entry): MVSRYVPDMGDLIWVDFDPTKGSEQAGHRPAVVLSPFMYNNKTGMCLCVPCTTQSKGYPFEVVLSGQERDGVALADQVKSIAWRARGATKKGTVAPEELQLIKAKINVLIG

MEF = experiment: SAR analysis of small molecule cytotoxicity of MazEF TA System activators in embryonic fibroblast (MEF) cells. [Related pubchem assays (depositor defined):AID504720, AID504743]; assay type: functional; conditions: Mus musculus
[24] = target: T4, Endoribonuclease toxin MazF; experiment: substrate-only fluorescence increase artefacts – biochemical, single-stranded RNase substrate, counter-screen for MazEF activator project, dose response (AID 588502); assay type: functional
[25] = target: T4, Endoribonuclease toxin MazF; experiment: MazEF toxin-antitoxin RNase activation – biochemical, fluorescence, single-stranded RNA substrate, SAR follow-up (AID 588603); assay type: functional
[26] = target: T4, Endoribonuclease toxin MazF; experiment: SAR analysis of small molecule activators of the MazEF TA System via a fluorescence-based single-stranded RNase assay counterscreen. [Related pubchem assays (depositor defined):AID504720, AID504743]; assay type: functional

T1 sequence (Q00975 whole entry): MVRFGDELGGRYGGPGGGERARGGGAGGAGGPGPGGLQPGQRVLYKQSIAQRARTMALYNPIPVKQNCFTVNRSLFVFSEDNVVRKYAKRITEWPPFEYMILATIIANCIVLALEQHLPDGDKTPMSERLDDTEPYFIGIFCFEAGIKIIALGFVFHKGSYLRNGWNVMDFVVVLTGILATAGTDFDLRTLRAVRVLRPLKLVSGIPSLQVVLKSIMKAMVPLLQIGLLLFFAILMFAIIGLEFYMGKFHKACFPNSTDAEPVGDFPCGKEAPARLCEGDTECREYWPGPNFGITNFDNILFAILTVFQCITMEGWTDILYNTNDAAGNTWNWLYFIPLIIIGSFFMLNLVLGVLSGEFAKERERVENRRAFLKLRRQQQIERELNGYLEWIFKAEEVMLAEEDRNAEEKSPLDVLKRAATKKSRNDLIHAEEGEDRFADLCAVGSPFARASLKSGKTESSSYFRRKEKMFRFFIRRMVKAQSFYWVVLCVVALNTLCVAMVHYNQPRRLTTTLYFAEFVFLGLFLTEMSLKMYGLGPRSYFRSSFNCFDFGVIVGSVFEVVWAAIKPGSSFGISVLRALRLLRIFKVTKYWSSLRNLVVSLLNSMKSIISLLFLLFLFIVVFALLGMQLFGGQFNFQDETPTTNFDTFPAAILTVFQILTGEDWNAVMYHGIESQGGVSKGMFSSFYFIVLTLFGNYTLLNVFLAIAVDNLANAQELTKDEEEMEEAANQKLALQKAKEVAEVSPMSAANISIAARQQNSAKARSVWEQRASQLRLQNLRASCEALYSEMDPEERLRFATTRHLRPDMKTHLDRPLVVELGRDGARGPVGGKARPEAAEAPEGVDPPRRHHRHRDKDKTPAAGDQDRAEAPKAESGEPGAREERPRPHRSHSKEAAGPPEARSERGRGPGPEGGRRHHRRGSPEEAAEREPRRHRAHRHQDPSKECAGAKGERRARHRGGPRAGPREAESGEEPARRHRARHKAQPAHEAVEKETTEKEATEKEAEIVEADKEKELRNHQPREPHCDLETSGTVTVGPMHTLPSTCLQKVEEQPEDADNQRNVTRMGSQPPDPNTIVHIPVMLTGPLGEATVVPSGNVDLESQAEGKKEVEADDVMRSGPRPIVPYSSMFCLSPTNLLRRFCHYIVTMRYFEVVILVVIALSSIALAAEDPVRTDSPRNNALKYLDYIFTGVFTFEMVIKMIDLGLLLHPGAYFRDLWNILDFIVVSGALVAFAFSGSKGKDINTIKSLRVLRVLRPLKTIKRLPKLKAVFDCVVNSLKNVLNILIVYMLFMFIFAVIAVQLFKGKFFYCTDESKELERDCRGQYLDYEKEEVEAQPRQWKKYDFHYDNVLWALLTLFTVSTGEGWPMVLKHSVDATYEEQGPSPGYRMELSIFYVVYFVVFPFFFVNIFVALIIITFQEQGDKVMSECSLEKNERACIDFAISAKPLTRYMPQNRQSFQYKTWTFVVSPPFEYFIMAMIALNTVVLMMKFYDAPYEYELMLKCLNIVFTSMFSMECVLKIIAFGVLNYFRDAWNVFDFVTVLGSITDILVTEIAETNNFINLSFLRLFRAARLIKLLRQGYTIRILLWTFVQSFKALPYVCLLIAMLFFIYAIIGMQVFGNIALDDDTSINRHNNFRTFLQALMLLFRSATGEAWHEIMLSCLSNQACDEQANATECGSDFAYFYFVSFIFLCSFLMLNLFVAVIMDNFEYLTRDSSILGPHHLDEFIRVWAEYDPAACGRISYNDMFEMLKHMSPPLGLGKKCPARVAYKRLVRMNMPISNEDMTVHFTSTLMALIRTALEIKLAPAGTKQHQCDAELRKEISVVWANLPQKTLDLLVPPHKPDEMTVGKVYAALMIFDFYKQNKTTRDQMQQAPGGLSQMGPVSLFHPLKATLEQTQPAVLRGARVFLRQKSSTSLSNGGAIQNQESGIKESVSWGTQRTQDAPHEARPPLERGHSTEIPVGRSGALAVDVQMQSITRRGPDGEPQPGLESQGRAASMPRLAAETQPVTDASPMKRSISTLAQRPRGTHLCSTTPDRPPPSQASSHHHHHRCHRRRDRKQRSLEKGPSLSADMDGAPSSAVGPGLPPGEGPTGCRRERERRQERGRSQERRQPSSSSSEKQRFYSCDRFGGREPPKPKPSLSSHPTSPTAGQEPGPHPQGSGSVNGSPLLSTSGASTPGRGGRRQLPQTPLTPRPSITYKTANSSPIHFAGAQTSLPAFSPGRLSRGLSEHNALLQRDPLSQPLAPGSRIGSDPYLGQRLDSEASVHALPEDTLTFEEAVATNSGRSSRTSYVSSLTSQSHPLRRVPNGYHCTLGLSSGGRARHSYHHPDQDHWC
T1 sequence (Q02410 whole entry): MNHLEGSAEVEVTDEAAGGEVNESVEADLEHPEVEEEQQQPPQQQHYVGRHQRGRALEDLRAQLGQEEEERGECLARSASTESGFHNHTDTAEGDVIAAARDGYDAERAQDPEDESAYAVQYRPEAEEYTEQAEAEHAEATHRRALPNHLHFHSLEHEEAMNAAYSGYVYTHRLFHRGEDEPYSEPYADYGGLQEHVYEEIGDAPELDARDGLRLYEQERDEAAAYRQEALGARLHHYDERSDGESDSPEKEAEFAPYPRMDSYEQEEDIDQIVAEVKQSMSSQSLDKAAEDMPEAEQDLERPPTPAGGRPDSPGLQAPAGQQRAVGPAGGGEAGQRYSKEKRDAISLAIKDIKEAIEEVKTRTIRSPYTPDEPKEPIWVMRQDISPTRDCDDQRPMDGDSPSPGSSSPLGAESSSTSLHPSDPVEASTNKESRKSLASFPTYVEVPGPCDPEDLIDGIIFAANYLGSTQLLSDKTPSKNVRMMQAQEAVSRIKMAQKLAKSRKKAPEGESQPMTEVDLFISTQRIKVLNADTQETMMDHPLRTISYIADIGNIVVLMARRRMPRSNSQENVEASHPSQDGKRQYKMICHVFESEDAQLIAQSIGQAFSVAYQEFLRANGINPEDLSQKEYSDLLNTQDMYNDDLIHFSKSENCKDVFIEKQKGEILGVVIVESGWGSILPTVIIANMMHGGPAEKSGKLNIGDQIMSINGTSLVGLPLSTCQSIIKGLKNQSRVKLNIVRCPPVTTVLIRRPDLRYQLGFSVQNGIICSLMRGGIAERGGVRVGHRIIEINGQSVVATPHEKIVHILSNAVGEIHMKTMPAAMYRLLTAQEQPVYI
Chain of Delta-type opioid receptor (P41143 whole entry): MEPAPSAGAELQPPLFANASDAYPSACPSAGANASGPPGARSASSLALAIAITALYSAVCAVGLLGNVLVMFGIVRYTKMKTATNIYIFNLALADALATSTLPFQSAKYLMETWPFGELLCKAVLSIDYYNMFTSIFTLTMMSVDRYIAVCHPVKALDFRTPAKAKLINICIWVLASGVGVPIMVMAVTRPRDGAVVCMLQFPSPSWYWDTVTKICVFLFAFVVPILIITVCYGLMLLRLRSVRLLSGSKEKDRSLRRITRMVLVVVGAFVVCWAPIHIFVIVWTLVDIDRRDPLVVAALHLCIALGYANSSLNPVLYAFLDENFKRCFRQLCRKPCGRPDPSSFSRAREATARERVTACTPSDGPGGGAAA
Chain of 5-hydroxytryptamine receptor 5A (P47898 whole entry): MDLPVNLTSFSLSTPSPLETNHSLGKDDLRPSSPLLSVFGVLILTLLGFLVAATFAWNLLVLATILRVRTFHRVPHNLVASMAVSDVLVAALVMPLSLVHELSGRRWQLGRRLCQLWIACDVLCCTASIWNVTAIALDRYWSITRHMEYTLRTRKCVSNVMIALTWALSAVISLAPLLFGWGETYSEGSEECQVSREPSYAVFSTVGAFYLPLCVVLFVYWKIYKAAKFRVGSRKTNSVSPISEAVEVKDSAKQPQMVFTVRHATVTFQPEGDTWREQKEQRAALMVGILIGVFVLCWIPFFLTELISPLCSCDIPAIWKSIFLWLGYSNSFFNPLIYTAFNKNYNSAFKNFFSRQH
Chain of SUMO E1/E2 (Q9UBE0 whole entry): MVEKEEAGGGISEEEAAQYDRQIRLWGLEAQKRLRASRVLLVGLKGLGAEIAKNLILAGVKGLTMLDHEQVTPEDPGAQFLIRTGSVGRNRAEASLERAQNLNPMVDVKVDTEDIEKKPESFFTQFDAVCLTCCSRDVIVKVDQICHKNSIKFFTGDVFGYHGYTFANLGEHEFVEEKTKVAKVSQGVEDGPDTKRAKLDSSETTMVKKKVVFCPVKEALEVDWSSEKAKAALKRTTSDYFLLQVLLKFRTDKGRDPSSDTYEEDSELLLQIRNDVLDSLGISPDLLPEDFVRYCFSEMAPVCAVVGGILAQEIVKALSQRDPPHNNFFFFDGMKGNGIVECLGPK
Chain of SUMO E1/E2 (Q9UBT2 whole entry): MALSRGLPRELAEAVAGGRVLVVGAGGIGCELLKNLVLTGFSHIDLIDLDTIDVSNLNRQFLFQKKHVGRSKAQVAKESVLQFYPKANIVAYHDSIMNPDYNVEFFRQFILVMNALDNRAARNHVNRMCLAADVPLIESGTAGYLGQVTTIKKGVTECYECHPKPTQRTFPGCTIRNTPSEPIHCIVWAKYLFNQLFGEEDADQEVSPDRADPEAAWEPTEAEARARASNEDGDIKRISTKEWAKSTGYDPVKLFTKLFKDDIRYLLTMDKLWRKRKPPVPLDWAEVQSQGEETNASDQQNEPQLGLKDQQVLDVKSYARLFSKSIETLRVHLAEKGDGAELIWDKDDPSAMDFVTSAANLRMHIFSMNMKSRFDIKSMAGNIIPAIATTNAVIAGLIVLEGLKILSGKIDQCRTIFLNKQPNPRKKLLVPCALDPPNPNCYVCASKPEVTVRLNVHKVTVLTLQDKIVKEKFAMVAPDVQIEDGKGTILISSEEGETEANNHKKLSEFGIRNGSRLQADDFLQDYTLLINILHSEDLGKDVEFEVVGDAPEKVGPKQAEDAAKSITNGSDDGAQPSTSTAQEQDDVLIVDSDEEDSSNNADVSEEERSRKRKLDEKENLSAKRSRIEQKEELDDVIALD
Chain of SUMO E1/E2 (P63279 whole entry): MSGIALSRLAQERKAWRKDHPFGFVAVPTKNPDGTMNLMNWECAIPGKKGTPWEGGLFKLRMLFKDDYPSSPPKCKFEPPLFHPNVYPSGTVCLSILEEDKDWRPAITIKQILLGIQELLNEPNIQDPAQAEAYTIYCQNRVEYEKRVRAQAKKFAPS

CC(=O)c1ccc(NC(=O)N2CCc3ccccc3C2)cc1
EC50 [1]: > 150 µM (not active) | EC50 (BJ [2]): 10.5 µM (active) | EC50 (BJ [3]): 6.04 µM (active) | EC50 (BJ [4]): > 150 µM (not active) | EC50 (BJ [5]): > 150 µM (not active)

CC1CC2=C(CC1/C=N/NC(N)=S)C(C)(C)CCC2 (centres undefined)
EC50 (Beta-galactosidase): > 40 µM (inactive) | IC50 [6]: 22.6 µM (not active) | CC50 [7]: 20.9 µM (active)

CC(CC(=O)N(CCC1=CCCCC1)c1c(N)n(Cc2ccccc2)c(=O)[nH]c1=O)c1ccccc1 (centres undefined)
EC50 [8]: > 92.5 µM (inactive) | EC50 [9]: > 92.5 µM (inactive) | EC50 (Mu-type opioid receptor): > 92.5 µM (inactive)

COc1ccc(CNC(=O)c2cc(-c3ccco3)nc3ccccc23)cc1
IC50 [10]: > 56.8 µM (inactive) | IC50 (SUMO E1/E2): 2.61 µM (active) | IC50 [11]: 20.3 µM (active)

C[C@@H](CN1CC=C(n2c(=O)[nH]c3ccccc32)CC1)NC(=O)[C@H]1C[C@@H]1c1ccccc1
IC50 (Phospholipase D1): 0.48 µM (active) | IC50 (Phospholipase D2): 20 µM (active)

O=C1NC[C@H](c2ccccc2)OC(=O)[C@@H](Cc2ccc(F)cc2)CC/C=C/C[C@@H]1CC(=O)N(CCO)Cc1ccccc1
EC50 (Beta-galactosidase): 19.5 µM (active) | IC50 [6]: 33.7 µM (not active)

CCOc1ccc(C2=Nn3c(nnc3-c3ccccc3OC)SC2)cc1
AC50 (Paired box protein Pax-8): 0.317 µM (active) | EC50 [1]: < 0.12 µM (active) | EC50 (cells): 0.046 µM (active) | EC50 [12]: < 0.1 µM (active) | EC50 [13]: < 0.1 µM (active) | EC50 [14]: < 0.1 µM (active) | AC50 [15]: 63 µM (active) | EC50 [16]: 0.04 µM (active) | EC50 (BJ [2]): < 0.12 µM (active) | EC50 (BJ [3]): < 0.104 µM (active) | EC50 [17]: 0.034 µM (active)

Cc1ccc(C(=O)N[C@@H](C)CN2CCC(n3c(=O)[nH]c4cc(Br)ccc43)CC2)cc1
IC50 (Phospholipase D1): 0.007 µM (active) | IC50 (Phospholipase D2): 2.8 µM (active)

CSc1cccc(NC(=O)C2CCCN(S(=O)(=O)c3cccs3)C2)c1 (centres undefined)
IC50 (Orexin receptor type 2 [18]): 5.3 µM (active) | IC50 [19]: 0.546 µM (active) | IC50 [20]: 6.4 µM (active) | IC50 (CHO-K1): > 66.2 µM (inactive) | IC50 (Orexin receptor type 2 [21]): > 50 µM (inactive) | IC50 [22]: > 49.7 µM (inactive)

Cc1c(C(=O)Oc2cc(N)n(S(C)(=O)=O)n2)cccc1[N+](=O)[O-]
EC50 [23]: 5.59 µM (active) | CC50 (MEF): > 99 µM (inactive) | EC50 [24]: > 99 µM (inactive) | EC50 [25]: 6.63 µM (active) | EC50 [26]: > 99 µM (inactive)

COc1ccc(C2C(C#N)=C(N)N(c3sc4c(c3C#N)CCCC4)C3=C2C(=O)CC(C)(C)C3)cc1 (centres undefined)
EC50 [8]: 11.6 µM (inactive) | EC50 [9]: > 92.5 µM (inactive) | EC50 (Mu-type opioid receptor): > 92.5 µM (inactive)

COc1ccccc1CCNC(=O)COC(=O)c1cc(-c2ccco2)nc2ccccc12
IC50 [10]: 28.5 µM (active) | IC50 (SUMO E1/E2): 25.3 µM (active) | IC50 [11]: 17.4 µM (active)

Cn1c2ccccc2c(=O)c2cc(C#Cc3cccc(N)c3)ccc21
IC50 (Orexin receptor type 2 [18]): > 88.8 µM (inactive) | IC50 [19]: 1.5 µM (active) | IC50 [20]: 1.69 µM (active) | IC50 (CHO-K1): > 66.3 µM (inactive) | IC50 (Orexin receptor type 2 [21]): 0.07 µM (active) | IC50 [22]: > 49.8 µM (inactive)
